Tests used:
Olfr1062 = molecular target: T1, Olfr1062 (Mus musculus, UniProt Q7TR71); experiment: Dual-Glo firefly/Renilla luciferase reporter, dose-response; format: cell-based; details: odorant up to 0.3 mM; competitive-binding model fit, single odorant
T1 sequence (Q7TR71 1-315): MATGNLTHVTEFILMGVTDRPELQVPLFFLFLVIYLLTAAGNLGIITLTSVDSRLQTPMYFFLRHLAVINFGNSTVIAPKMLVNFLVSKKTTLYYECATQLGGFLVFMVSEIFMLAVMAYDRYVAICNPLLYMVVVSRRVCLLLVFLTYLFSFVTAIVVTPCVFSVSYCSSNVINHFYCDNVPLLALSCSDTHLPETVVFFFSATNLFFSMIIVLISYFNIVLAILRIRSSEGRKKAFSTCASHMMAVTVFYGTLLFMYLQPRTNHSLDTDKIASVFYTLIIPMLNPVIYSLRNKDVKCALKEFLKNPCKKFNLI

OR5P3 = molecular target: T2, OR5P3 (Homo sapiens, UniProt Q8WZ94); experiment: as above; format: cell-based; details: odorant up to 0.3 mM; competitive-binding model fit, single odorant
T2 sequence (Q8WZ94 1-311): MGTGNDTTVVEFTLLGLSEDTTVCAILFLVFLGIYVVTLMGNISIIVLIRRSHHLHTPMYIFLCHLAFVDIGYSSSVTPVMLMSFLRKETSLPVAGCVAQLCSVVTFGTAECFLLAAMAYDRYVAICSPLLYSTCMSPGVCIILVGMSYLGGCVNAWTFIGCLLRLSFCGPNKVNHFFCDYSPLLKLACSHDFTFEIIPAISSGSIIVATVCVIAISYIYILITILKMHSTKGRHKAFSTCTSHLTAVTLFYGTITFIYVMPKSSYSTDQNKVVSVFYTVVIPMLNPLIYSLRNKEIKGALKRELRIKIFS

O=c1ccc2ccccc2o1 [coumarin]
EC50 (Olfr1062): Olfr1062, synergy between all three pairs | EC50 (OR5P3): OR5P3, synergy between coumarin and acetophenone

C=CCc1ccc(O)c(OC)c1 [eugenol]
EC50 (Olfr1062): Olfr1062, synergy between all three pairs

CC(=O)c1ccccc1 [acetophenone]
EC50 (Olfr1062): Olfr1062, synergy between all three pairs | EC50 (OR5P3): OR5P3, synergy between coumarin and acetophenone
